Reference: patent US20250188067A1, “SALT AND CRYSTAL FORM OF DIPEPTIDYL PEPTIDASE INHIBITOR COMPOUND” (HAISCO PHARMACEUTICALS PTE. LTD., priority 2022, published 2025)
≈ marks a conversion by molar mass, not a printed value.

Assays:
[1] = The pharmacokinetic test of rat; assay type: in vivo; details: male SD rats, Gavage (3 mg/kg)
Experimental: • 1.1 Test animals: male SD rats, about 220 g, 6 to 8 weeks old, 6 rats/compound. Purchased from Chengdu Senwell Experimental Animals Co., Ltd. • 1.2 Test design: On the day of the test, 6 SD rats were randomly divided into groups according to body weight. Water and no food for 12 to 14 hours one day before administration, and food 4 hours after administration.
Vehicle for intravenous administration: 5% DMA+5% Solutol+90% Saline; vehicle for gavage administration: 0.5% MC; the reference compound INS1007, which is Compound 2 in patent WO2015110826A1, was prepared according to the method of the patent.
Before and after administration, 0.1 mL of blood was taken from the orbit under isoflurane anesthesia. It was placed in an EDTAK2 centrifuge tube, and centrifuged at 5000 rpm and 4° C. for 10 min, and the plasma was collected. Time points of blood collection in the intravenous groups: 0, 5, 15, 30 min, 1, 2, 4, 6, 8, 24 h; time points of blood collection in the gavage groups: 0, 5, 15, 30 min, 1, 2, 4, 6, 8, 24 h. Before analysis and detection, all samples were stored at −80° C.

[2] = biological target: Recombinant human DPP1 enzyme (Homo sapiens (Human), UniProt P53634); test: Activity detection test of DPP1 enzyme in vitro
Chain of Recombinant human DPP1 enzyme (P53634 25-134): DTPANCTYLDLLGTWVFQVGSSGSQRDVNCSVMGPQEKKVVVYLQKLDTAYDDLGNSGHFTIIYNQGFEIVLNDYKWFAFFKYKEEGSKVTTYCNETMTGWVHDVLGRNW
Chain of Recombinant human DPP1 enzyme (P53634 231-394): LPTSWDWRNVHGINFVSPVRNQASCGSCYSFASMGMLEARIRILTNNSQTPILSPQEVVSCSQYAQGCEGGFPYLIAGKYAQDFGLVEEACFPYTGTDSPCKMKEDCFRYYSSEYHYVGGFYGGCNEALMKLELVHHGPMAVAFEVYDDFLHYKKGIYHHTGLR
Chain of Recombinant human DPP1 enzyme (P53634 395-463): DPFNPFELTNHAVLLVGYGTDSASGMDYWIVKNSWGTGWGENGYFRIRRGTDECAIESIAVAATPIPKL

Dynamic solubility = assay type: physicochemical; details: thermodynamic from solid, 37° C.
Experimental: A sample of about 0.9 mL was taken, centrifuged and filtered, tested the solid by XRPD, and tested the liquid by HPLC concentration and pH.

[3] = HPLC impurities of solid stability samples; assay type: physicochemical
[4] = Solid stability evaluation (XRPD and HPLC) at 25° C./60% RH and 40° C./75% RH; assay type: physicochemical; details: for Crystalline form change: XRPD
[5] = Hygroscopicity by Dynamic Vapour Sorption (DVS); assay type: physicochemical; details: 25° C./80% RH
Experimental: The hygroscopicity of the crystalline A of hydrochloride, crystalline A of malate and crystalline B of adipate was evaluated by a Dynamic Vapour Sorption (DVS) instrument. Crystalline form […] starts with ambient humidity (˜60% RH), and crystalline form B starts with 0% relative humidity (0% RH). The test collected mass change percentage of the sample under constant temperature conditions of 25° C., with changes in humidity (60% RH-95% RH-0% RH-95% RH or 0% RH-95% RH-0% RH). The test results are shown in FIGS. 103, 104 and 105 respectively.

Row | Compound | HPLC peak at RRT 1.00 ([3]; RRT 1.00, 25° C./60% RH/1 W) | HPLC peak at RRT 1.00 ([3]; RRT 1.00, 25° C./60% RH/3 W) | HPLC peak at RRT 1.00 ([3]; RRT 1.00, 40° C./75% RH/1 W) | HPLC peak at RRT 1.00 ([3]; RRT 1.00, Starting) | HPLC impurity at RRT 1.12 ([3]; RRT 1.12, 25° C./60% RH/1 W) | HPLC impurity at RRT 1.12 ([3]; RRT 1.12, 25° C./60% RH/3 W) | HPLC impurity at RRT 1.12 ([3]; RRT 1.12, 40° C./75% RH/1 W) | HPLC impurity at RRT 1.12 ([3]; RRT 1.12, 40° C./75% RH/3 W) | HPLC impurity at RRT 1.12 ([3]; RRT 1.12, Starting) | HPLC purity (Area %) ([4]; 25° C./60% RH, 1 week) | Purity/Starting purity (%) ([4]; 25° C./60% RH, 1 week) | Crystalline form change ([4]; 25° C./60% RH, 1 week) | HPLC purity (Area %) ([4]; 25° C./60% RH, 3 weeks) | Purity/Starting purity (%) ([4]; 25° C./60% RH, 3 weeks) | HPLC purity (Area %) ([4]; 40° C./75% RH, 1 week) | Purity/Starting purity (%) ([4]; 40° C./75% RH, 1 week) | Crystalline form change ([4]; 40° C./75% RH, 1 week) | HPLC purity (Area %) ([4]; 40° C./75% RH, 3 weeks) | Purity/Starting purity (%) ([4]; 40° C./75% RH, 3 weeks) | HPLC purity (Area %) ([4]; Starting) | other results
1 | Cn1c(=O)oc2ccc(-c3ccc(C[C@@H](C#N)NC(=O)[C@@H]4CNCCCO4)c(F)c3)cc21 [Compound I, (S)—N—((S)-1-cyano-2-(2-fluoro-4-(3-methyl-2-oxo-2,3-dihydrobenzo[d]oxazol-5-yl)phenyl)ethyl)-1,4-oxazepane-2-carboxamide] |  |  |  |  |  |  |  |  |  |  |  |  |  |  |  |  |  |  |  |  | F [1]: >100%; inhibitory activity against DPP1 (conclusion in words) [2]: high inhibitory activity; solubility at 1 h (Dynamic solubility; simulated gastric fluid, SGF): > 5200 µg/mL; solubility at 2 h (Dynamic solubility; simulated gastric fluid, SGF): > 5200 µg/mL; solubility at 4 h (Dynamic solubility; simulated gastric fluid, SGF): > 5300 µg/mL; solubility at 24 h (Dynamic solubility; simulated gastric fluid, SGF): > 5200 µg/mL; solubility at 1 h (Dynamic solubility; FaSSIF): 370 µg/mL (≈ 844 µM); solubility at 2 h (Dynamic solubility; FaSSIF): 360 µg/mL (≈ 821 µM); solubility at 4 h (Dynamic solubility; FaSSIF): 350 µg/mL (≈ 798 µM); solubility at 24 h (Dynamic solubility; FaSSIF): 290 µg/mL (≈ 661 µM); solubility at 1 h (Dynamic solubility; FeSSIF): 2700 µg/mL (≈ 6160 µM); solubility at 2 h (Dynamic solubility; FeSSIF): 2700 µg/mL (≈ 6160 µM); solubility at 4 h (Dynamic solubility; FeSSIF): 2700 µg/mL (≈ 6160 µM); solubility at 24 h (Dynamic solubility; FeSSIF): 2300 µg/mL (≈ 5250 µM); solubility at 1 h (Dynamic solubility; water, H2O): 35 µg/mL (≈ 79.8 µM); solubility at 2 h (Dynamic solubility; water, H2O): 30 µg/mL (≈ 68.4 µM); solubility at 4 h (Dynamic solubility; water, H2O): 16 µg/mL (≈ 36.5 µM); solubility at 24 h (Dynamic solubility; water, H2O): 16 µg/mL (≈ 36.5 µM)
2 | Cn1c(=O)oc2ccc(-c3ccc(C[C@@H](C#N)NC(=O)[C@@H]4CNCCCO4)cc3)cc21 [INS1007, reference compound] |  |  |  |  |  |  |  |  |  |  |  |  |  |  |  |  |  |  |  |  | F [1]: 88.1%
3 | Cl.Cn1c(=O)oc2ccc(-c3ccc(C[C@@H](C#N)NC(=O)[C@@H]4CNCCCO4)c(F)c3)cc21 [crystalline A of hydrochloride] | 99.60 | 99.67 | 99.59 | 99.63 | 0.14 | 0.13 | 0.12 | 0.18 | 0.16 | 99.60 Area % | 100.0% | No | 99.67 Area % | 100.0% | 99.59 Area % | 100.0% | No | 99.17 Area % | 99.5% | 99.63 Area % | HPLC impurity at RRT 1.06 ([3]; RRT 1.06, 25° C./60% RH/1 W): 0.26; HPLC impurity at RRT 1.06 ([3]; RRT 1.06, 25° C./60% RH/3 W): 0.21; HPLC impurity at RRT 1.06 ([3]; RRT 1.06, 40° C./75% RH/1 W): 0.20; HPLC impurity at RRT 1.06 ([3]; RRT 1.06, Starting): 0.21; HPLC impurity at RRT 1.16 ([3]; RRT 1.16, 40° C./75% RH/3 W): 0.06; HPLC impurity at RRT 1.28 ([3]; RRT 1.28, 40° C./75% RH/1 W): 0.09; HPLC impurity at RRT 1.28 ([3]; RRT 1.28, 40° C./75% RH/3 W): 0.17; water sorption [5]: 0.47%

Now from value to compound, other results behind:

Row | HPLC peak at RRT 1.00 ([3]; RRT 1.00, 25° C./60% RH/1 W) | HPLC peak at RRT 1.00 ([3]; RRT 1.00, 25° C./60% RH/3 W) | HPLC peak at RRT 1.00 ([3]; RRT 1.00, 40° C./75% RH/1 W) | HPLC peak at RRT 1.00 ([3]; RRT 1.00, Starting) | HPLC impurity at RRT 1.12 ([3]; RRT 1.12, 25° C./60% RH/1 W) | HPLC impurity at RRT 1.12 ([3]; RRT 1.12, 25° C./60% RH/3 W) | HPLC impurity at RRT 1.12 ([3]; RRT 1.12, 40° C./75% RH/1 W) | HPLC impurity at RRT 1.12 ([3]; RRT 1.12, 40° C./75% RH/3 W) | HPLC impurity at RRT 1.12 ([3]; RRT 1.12, Starting) | HPLC purity (Area %) ([4]; 25° C./60% RH, 1 week) | Purity/Starting purity (%) ([4]; 25° C./60% RH, 1 week) | Crystalline form change ([4]; 25° C./60% RH, 1 week) | HPLC purity (Area %) ([4]; 25° C./60% RH, 3 weeks) | Purity/Starting purity (%) ([4]; 25° C./60% RH, 3 weeks) | HPLC purity (Area %) ([4]; 40° C./75% RH, 1 week) | Purity/Starting purity (%) ([4]; 40° C./75% RH, 1 week) | Crystalline form change ([4]; 40° C./75% RH, 1 week) | HPLC purity (Area %) ([4]; 40° C./75% RH, 3 weeks) | Purity/Starting purity (%) ([4]; 40° C./75% RH, 3 weeks) | HPLC purity (Area %) ([4]; Starting) | Compound | other results
4 | 99.89 | 99.91 | 99.92 | 99.90 | 0.11 | 0.09 | 0.08 | 0.08 | 0.10 | 99.89 Area % | 100.0% | No | 99.91 Area % | 100.0% | 99.92 Area % | 100.0% | No | 99.92 Area % | 100.0% | 99.90 Area % | Cn1c(=O)oc2ccc(-c3ccc(C[C@@H](C#N)NC(=O)[C@@H]4CNCCCO4)c(F)c3)cc21.O=C(O)CC(O)C(=O)O [crystalline A of malate] | HPLC peak at RRT 1.00 ([3]; RRT 1.00, 40° C./75% RH/3 W): 99.92; water sorption [5]: 1.27%
5 | 99.71 | 99.72 | 99.74 | 99.74 | 0.29 | 0.28 | 0.26 | 0.28 | 0.26 | 99.71 Area % | 100.0% | No | 99.72 Area % | 100.0% | 99.74 Area % | 100.0% | No | 99.72 Area % | 100.0% | 99.74 Area % | Cn1c(=O)oc2ccc(-c3ccc(C[C@@H](C#N)NC(=O)[C@@H]4CNCCCO4)c(F)c3)cc21.O=C(O)CCCCC(=O)O [crystalline B of adipate] | HPLC peak at RRT 1.00 ([3]; RRT 1.00, 40° C./75% RH/3 W): 99.72; water sorption [5]: 0.24%
